According to publication PMC9814779, “A triple farnesoid X receptor and peroxisome proliferator-activated receptor α/δ activator reverses hepatic fibrosis in diet-induced NASH in mice” (Communications Chemistry, 2020):

Tested on: FXR- and PPAR-regulated gene expression in HepG2 cells
Experiment: FXR- and PPAR-regulated gene expression in HepG2 cells (qRT-PCR)
Assay type: cell-based, human
Conditions: 12 h
Description: HepG2 cells (DSMZ) were grown in DMEM high glucose, supplemented with 10% FCS, 1 mM SP, penicillin (100 U/mL), and streptomycin (100 μg/mL) at 37 °C and 5% CO2 and seeded in 6-well plates (2 × 10^6 per well). After 24 h, medium was changed to Minimal Essential Medium supplemented with 1% charcoal-stripped FCS, penicillin (100 U/mL), streptomycin (100 μg/mL), and 2 mM L-glutamine. After an additional 24 h, cells were incubated with test compound 41 (0.1 µM, 0.3 µM, 1 μM), OCA (1 μM), or elafibranor (1 µM) dissolved in the same medium with 0.1% DMSO or medium with 0.1% DMSO alone as untreated control for 12 h, harvested, washed with cold phosphate-buffered saline (PBS), and then directly used for RNA extraction. C2C12 cells (American Type Culture Collection, ATCC) were grown in DMEM high glucose, supplemented with 10% FCS, 1 mM SP, penicillin (100 U/mL), and streptomycin (100 μg/mL) at 37 °C and 5% CO2 and seeded in 6-well plates (1 × 10^6 per well). Upon reaching confluence, medium was changed to Eagle’s Minimal Essential Medium supplemented with 2% horse serum, penicillin (100 U/mL), streptomycin (100 μg/mL), and 2 mM L-glutamine. Cells were then differentiated in this medium for 5 days before incubation with test compounds 41 (1 μM) or L165,041 (1 μM) dissolved in the same medium with 0.1% DMSO or medium with 0.1% DMSO alone as untreated control for 8 h. Cells were harvested, washed with cold PBS, and then directly used for RNA extraction. Total RNA was extracted from HepG2 cells or C2C12 cells using the total RNA Mini Kit (R6834-02, Omega Bio-Tek, Inc., Norcross, GA, USA). Two micrograms of extracted RNA were then reverse-transcribed into cDNA with the High-Capacity cDNA Reverse Transcription Kit (4368814, Thermo Fischer Scientific, Inc.). FXR- and PPAR-regulated gene expression was then studied by quantitative real-time PCR (qRT-PCR) analysis with a StepOnePlus System (Life Technologies, Carlsbad, CA, USA) using PowerSYBRGreen (Life Technologies; 12.5 μL per well). Each sample was set up in duplicates and repeated in four independent experiments. Data were analyzed by the comparative ΔΔCT method with glyceraldehyde 3-phosphate dehydrogenase (GAPDH) as reference gene. The following primers were used for HepG2 cells (human genes): hGAPDH: 5 ′-ATATGATTCCACCCATGGCA (fw), 5′-GATGATGACCCTTTTGGCTC (rev); hSHP: 5′-GCTGTCTGGAGTCCTTCTGG (fw), 5′-CCAATGATAGGGCGAAAGAAGAG (rev); hCYP7A1: 5′-CACCTTGAGGACGGTTCCTA (fw), 5′-CGATCCAAAGGGCATGTAGT (rev); hBSEP: 5′-CATGGTGCAAGAAGTGCTGAGT (fw), 5′-AAGCGATGAGCAACTGAAATGAT (rev); hACOX: 5′-ACT CGC AGC CAG CGT TAT G (fw), 5′-AGG GTC AGC GAT GCC AAA C (rev); hPDK4: 5′-AGAGCCTGATGGATTTGGTG (fw), 5′-GCTTGGGTTTCCTGTCTGTG (rev); hCPT1: 5′-ACAGTCGGTGAGGCCTCTTAT (fw), 5′-TCTTGCTGCCTGAATGTGAGT (rev); hFGF21: 5′-ATGGATCGCTCCACTTTGACC (fw), 5′-GGGCTTCGGACTGGTAAACAT (rev). The following primers were used for C2C12 cells (murine genes)[36]: mGAPDH: 5′-CGACTTCAACAGCAACTCCCACTCTTCC (fw), 5′-TGGGTGGTCCAGGGTTTCTTACTCCTT (rev); mPCK: 5′-TGTTTACTGGGAAGGCATCG (fw), 5′-CAGAATCTCGAGTTGGGATGG (rev); mGLUT3: 5′-CGTCCTTGAAGATTCCTGTTGA (fw), 5′-GTC ACC CAA CTA CGT CCA G (rev); mLPL: 5′-GTCAGGTTCTCTCTTGTACAGG (fw), 5′-TCTAACTGCCACTTCAACCAC (rev).

[1] = HepG2, 1 µM, vs. vehicle-treated cells

For `CC[C@H]1[C@@H](O)[C@@H]2[C@H](CC[C@]3(C)[C@@H]([C@H](C)CCC(=O)O)CC[C@@H]23)[C@@]2(C)CC[C@@H](O)C[C@@H]12` [OCA, 6α-ethylchenodeoxycholic acid, reference compound], the “mRNA expression of FXR-regulated genes (BSEP, SHP, CYP7A1)” value [1] was “upregulation of BSEP and small heterodimer partner (SHP) mRNA as well as downregulation of CYP7A1” and the “mRNA expression of PPAR-regulated genes (ACOX, PDK4, CPT1, FGF21)” value [1] was “slightly induced ACOX and FGF21 expression”.
In the case of `CC(C)(C)c1ccc(C(=O)Nc2cccc(CCC(=O)O)c2)c(NC(=O)c2ccc(-c3ccco3)cc2)c1` [compound 41, 3-(3-[4-{tert-Butyl}-2-{4-(2-furyl)}benzamido]phenyl)propanoic acid], the “dose dependence of BSEP, PDK4 and CPT1 expression” value (HepG2, 0.1 µM, 0.3 µM, 1 μM) is reported as “dose-dependent effects” and the “mRNA expression of FXR-regulated genes (BSEP, SHP, CYP7A1)” value [1] is reported as “upregulation of BSEP and small heterodimer partner (SHP) mRNA as well as downregulation of CYP7A1”.
